Results on four molecules are retold here after US20210300939A1, “Single Molecule Compounds Providing Multi-Target Inhibition of BTK and Other Proteins and Methods of Use Thereof” (SignalRx Pharmaceuticals, Inc., priority 2018, published 2021).

Experiment [1] has as its target T1, BRD4-1 (binding domain 1 of BRD4) (Homo sapiens, UniProt O60885).
T1 construct: purchased Reaction Biology Corp., Malvern, Pa; (contract assay)
The experiment can be described thus: BRD4 binding domain 1 inhibition (Reaction Biology Corp.). Conditions: 10-point curve; read-out: Target IC50 BRD4-1. As to the method:
(§1) The BTK, PI3K, and/or bromodomain inhibitory activity of a compound of the invention can be determined by methods known to the skilled artisan, or by procuring relevant analysis by a commercial vendor offering such services. […] In vivo, PI3K inhibition can be determined from target tissue biopsies by standard tissue processing in which cells are disrupted and Western Blot analysis is performed to determine the presence or absence of pAKT (substrate of PI3K) relative to a control sample. PI3K inhibition assays and BTK inhibition assays are known in the art and can be procured commercially through vendors such as Reaction Biology (Malvern, Pa.). The activity of a compound of the invention as an inhibitor of a bromodomain-containing protein, such as a BET protein, including BRD2, BRD3, BRD4, and/or BRDT, or an isoform or mutant thereof, may be determined in vitro, in vivo, or in a cell line. In vitro assays include assays that determine inhibition of bromodomain-containing proteins. Alternatively, inhibitor binding may be determined by running a competition experiment where a provided compound is incubated with a bromodomain-containing protein, such as a BET protein bound to known ligands, labeled or unlabeled. In vitro bromodomain inhibition assays can be performed using Alpha Screen Technology (Perkin Elmer Life and Analytical Sciences, Shelton, Conn.). In vivo bromodomain inhibition can be determined indirectly by evaluating the amount of a protein whose gene transcription is influenced or controlled by the bromodomain protein, for example, MYCN protein transcription is controlled by BRD4 (J. E. Delmore et al., Cell 2011, 146, 904-917; A. Puissant, Cancer Discov. 2013, 3, 308-323).
(§2) Compounds of the invention were analyzed for their ability to inhibit target proteins in vitro. PI3K alpha, gamma, and delta inhibition activity was determined by Thermo Fisher Scientific-Biosciences Life Sciences Solutions, Madison, Wis. The bromodomain protein inhibition (binding domain 1 and 2 of BRD4) was determined at Reaction Biology Corp., Malvern, Pa. BTK inhibition was performed by Reaction Biology Corp., Malvern, Pa.
(§3) Additional information regarding the testing procedures is available at each company's website on the internet. The IC50 data was calculated from a 10-point curve by the vendor and is compiled in ranges in the Table 6 below.

For experiment [2], the target named is T2, BRD4-2 (binding domain 2 of BRD4) (Homo sapiens, UniProt O60885).
T2 construct: purchased Reaction Biology Corp., Malvern, Pa; (contract assay)
Kind of experiment: BRD4 binding domain 2 inhibition (Reaction Biology Corp.). Conditions: 10-point curve; read-out: Target IC50 BRD4-2. On the procedure: as §1, §2, §3

In another experiment the target is T3, PI3K α (Homo sapiens, UniProt P42336).
T3 construct: purchased Thermo Fisher Scientific-Biosciences Life Sciences Solutions, Madison, Wis; (contract assay)
Kind of experiment: PI3K alpha inhibition (Thermo Fisher Scientific). Format: biochemical. Conditions: 10-point curve; read-out: Target IC50 PI3K α. As to the method: as §1, §2, §3

A further experiment concerns the target T4, PI3K δ (Homo sapiens, UniProt O00329).
T4 construct: purchased Thermo Fisher Scientific-Biosciences Life Sciences Solutions, Madison, Wis; (contract assay)
The experiment can be described thus: PI3K delta inhibition (Thermo Fisher Scientific). Format: biochemical. Conditions: 10-point curve; read-out: Target IC50 PI3K δ. As to the method: as §1, §2, §3

A further experiment has as its target T5, PI3K γ (Homo sapiens, UniProt P48736).
T5 construct: purchased Thermo Fisher Scientific-Biosciences Life Sciences Solutions, Madison, Wis; (contract assay)
The experiment can be described thus: PI3K gamma inhibition (Thermo Fisher Scientific). Format: biochemical. Conditions: 10-point curve; read-out: Target IC50 PI3K γ. As to the method:
as §1, §2, §3

For a further experiment, the target named is T6, BTK (WT) (Homo sapiens, UniProt Q06187).
T6 construct: purchased Reaction Biology Corp., Malvern, Pa; (contract assay)
Kind of experiment: native BTK inhibition (Reaction Biology Corp.). Conditions: 10-point curve; read-out: Target IC50 BTK (WT). In kind it is biochemical. As to the method: as §2, §3

The next experiment addresses T7, BTK (C481S) (Homo sapiens, UniProt Q06187, C481S).
T7 construct: purchased Reaction Biology Corp., Malvern, Pa; (contract assay)
Kind of experiment: BTK cysteine mutant C481S inhibition (Reaction Biology Corp.). In kind it is biochemical. Conditions: for IC50: 10-point curve, read-out: Target IC50 BTK (C481S). As to the method: as §2, §3

Experiment [3] concerns JeKo-1 cells. The experiment can be described thus: Cell viability (Celltiter-Glo), JeKo-1. Format: cell-based. Conditions: Homo sapiens, 48 hours. On the procedure:
(§4) The results of this experiment are shown in FIGS. 1A-1C, and in Table 7 below. Human mantle cell lymphoma cell lines were grown in 96 well plates with 5000 cells per well in RPMI 1640 media supplemented with 10% fetal bovine serum. Cells were treated for 48 hours with a concentration range of each compound from 50 nM to 50 uM. Cell viability a measure of viable cell numbers was determined using a Celltiter-Glo^R reagent for each concentration in order to construct an IC50 curve for each compound in each cell line.
On the technique in general: Cellular ATP, detected with luciferase, serves as a proxy for viable cell number.

Experiment [4] deals with Mino cells. Kind of experiment: Cell viability (Celltiter-Glo), Mino. In kind it is cell-based. Conditions: Homo sapiens, 48 hours. As to the method: as §4
Another experiment deals with Granta519 cells. The experiment can be described thus: Cell viability (Celltiter-Glo), Granta519. Format: cell-based. Conditions: Homo sapiens, Granta-519, 48 hours. As to the method: as §4
Experiment [5] relates to JeKo-1 cells. The experiment can be described thus: Percentage cells in apoptosis, JeKo-1. In kind it is cell-based, human. An excerpt:
(§5) Additionally apoptosis data was obtained in both JeKo and Mino cells for compound 7.

Experiment [6] has as its system Mino cells. Kind of experiment: Percentage cells in apoptosis, Mino. Format: cell-based, human. Conditions: 24-hour.
Excerpt: as §5

The subject of experiment [7] is Human mantle cell lymphoma cell lines. Kind of experiment: Cell viability, mantle cell lymphoma cell lines (overall conclusion). In kind it is cell-based. Conditions: in vitro, 48 hours. As to the method:
as §4

For another experiment, the system named is JeKo and Mino cells. Kind of experiment: Apoptosis, both mantle cell lymphoma lines (overall statement). Format: cell-based, human.
Excerpt: as §5

Experiment [8] relates to pBTK(Y223) in JeKo and Mino cells. Kind of experiment: Western blot, phosphorylation of BTK at Tyr223 in anti-IgM stimulated cells. In kind it is cell-based, human. (In general: Immunoblotting shows a protein as a band on a membrane.)
Experiment [9] has as its system pAKT(S473) in JeKo and Mino cells. Kind of experiment: Western blot, phosphorylation of AKT at Ser 473 in anti-IgM stimulated cells. Format: cell-based, human. On the procedure: Phosphorylation of BTK at Tyr223 and AKT at Ser 473 were determined by Western blot analysis. The results are shown in FIGS. 2A-2B (JeKo cells) and FIGS. 2C-2D (Mino cells). Blots were reprobed for total BTK, AKT, and β-actin.

Experiment [10] concerns pBTK(Y223) in JeKo-BTK-WT and JeKo-BTK-C481S cells. Kind of experiment: Western blot for pBTK(Y223) in JeKo-BTK wild-type and JeKo-BTK-C481S cells. In kind it is cell-based, human. Conditions: 1 hour, different concentrations, FIGS. 6A and 6B.
For experiment [11], the system named is pAKT(S473) in JeKo-BTK-WT and JeKo-BTK-C481S cells. Kind of experiment: Western blot for pAKT in JeKo-BTK wild-type and JeKo-BTK-C481S cells. Format: cell-based, human. Conditions: 1 hour, different concentrations, FIGS. 6A and 6B.
Experiment [12] relates to pBTK in JeKo-BTK-C481S cells. Kind of experiment: Washout immunoblot for pBTK in JeKo-BTK-C481S cells. In kind it is cell-based, human. Conditions: 3 hours, washed with PBS, 4 hours recovery, FIG. 6C.
Experiment [13] deals with T8, fluorophore-tagged BRD4 fusion protein (Homo sapiens, UniProt O60885).
T8 construct: expressed in transfected cells; host or cells: JeKo cells
The experiment can be described thus: Chromatin-release assay in JeKo cells. In kind it is cell-based. Conditions: 1 μM, confocal microscopy. As to the method: A chromatin-release assay was performed on JeKo cells treated with 1 μM Compound 7.

In the next experiment the test system is JeKo cells. Kind of experiment: Cell cycle analysis in JeKo cells. In kind it is cell-based, human. Conditions: MCL cells, 5 μM, FIG. 4.
Another experiment has as its system PI3 kinases. Conditions: cited from earlier work.
Setting [14] is: anti-IgM stimulated JeKo and Mino cells, FIGS. 2A-2D.
The mark [15] stands for this setting: JeKo cells stimulated with F(ab′) and anti-human IgM, various concentrations, FIG. 3B.

The structures appear in SMILES notation.

T7 sequence (Q06187 whole entry C481S): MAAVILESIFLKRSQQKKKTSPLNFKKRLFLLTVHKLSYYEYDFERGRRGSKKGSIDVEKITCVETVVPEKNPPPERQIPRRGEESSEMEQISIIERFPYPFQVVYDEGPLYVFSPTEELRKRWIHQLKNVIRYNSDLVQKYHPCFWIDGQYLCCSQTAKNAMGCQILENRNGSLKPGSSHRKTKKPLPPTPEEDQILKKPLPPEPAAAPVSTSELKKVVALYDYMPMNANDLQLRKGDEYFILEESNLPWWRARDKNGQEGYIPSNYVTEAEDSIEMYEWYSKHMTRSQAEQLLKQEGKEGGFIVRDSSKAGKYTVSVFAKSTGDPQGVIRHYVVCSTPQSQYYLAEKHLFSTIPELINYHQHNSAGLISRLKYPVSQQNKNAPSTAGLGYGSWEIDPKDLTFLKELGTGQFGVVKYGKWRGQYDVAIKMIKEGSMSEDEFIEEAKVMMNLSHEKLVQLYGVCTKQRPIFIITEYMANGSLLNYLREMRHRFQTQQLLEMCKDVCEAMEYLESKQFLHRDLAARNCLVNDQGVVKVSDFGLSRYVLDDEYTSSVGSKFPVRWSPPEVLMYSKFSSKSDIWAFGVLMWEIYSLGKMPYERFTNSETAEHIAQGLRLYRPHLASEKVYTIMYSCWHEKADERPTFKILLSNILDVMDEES
T6 sequence (Q06187 whole entry): as the sequence (Q06187 whole entry C481S) above, with S481C counted along it
T4 sequence (O00329 whole entry): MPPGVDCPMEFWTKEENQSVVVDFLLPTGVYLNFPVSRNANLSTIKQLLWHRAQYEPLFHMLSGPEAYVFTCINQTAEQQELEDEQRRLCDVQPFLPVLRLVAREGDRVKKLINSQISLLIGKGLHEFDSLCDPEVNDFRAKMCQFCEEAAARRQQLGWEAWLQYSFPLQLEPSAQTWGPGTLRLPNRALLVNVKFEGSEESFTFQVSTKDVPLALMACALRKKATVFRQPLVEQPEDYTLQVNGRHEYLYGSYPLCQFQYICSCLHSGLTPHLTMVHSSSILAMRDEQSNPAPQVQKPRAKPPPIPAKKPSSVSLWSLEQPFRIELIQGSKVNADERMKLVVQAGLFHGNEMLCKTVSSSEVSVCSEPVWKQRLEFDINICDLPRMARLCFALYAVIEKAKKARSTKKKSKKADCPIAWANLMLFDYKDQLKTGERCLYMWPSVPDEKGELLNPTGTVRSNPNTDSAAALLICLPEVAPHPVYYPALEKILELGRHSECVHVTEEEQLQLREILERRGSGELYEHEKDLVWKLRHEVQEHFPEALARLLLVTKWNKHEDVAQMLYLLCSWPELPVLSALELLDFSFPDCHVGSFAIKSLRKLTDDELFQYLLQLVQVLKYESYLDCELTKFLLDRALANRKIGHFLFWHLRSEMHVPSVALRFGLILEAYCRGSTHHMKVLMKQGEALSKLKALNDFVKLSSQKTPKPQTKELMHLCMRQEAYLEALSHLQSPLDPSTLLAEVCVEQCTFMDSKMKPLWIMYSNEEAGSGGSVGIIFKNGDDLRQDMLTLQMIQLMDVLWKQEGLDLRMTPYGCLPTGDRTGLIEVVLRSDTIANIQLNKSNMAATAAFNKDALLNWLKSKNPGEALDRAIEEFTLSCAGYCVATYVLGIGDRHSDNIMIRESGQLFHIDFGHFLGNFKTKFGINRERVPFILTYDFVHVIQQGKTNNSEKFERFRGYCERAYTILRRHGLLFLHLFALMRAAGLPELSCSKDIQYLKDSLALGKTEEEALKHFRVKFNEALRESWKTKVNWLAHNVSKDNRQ
T4 sequence (P27986 whole entry partner): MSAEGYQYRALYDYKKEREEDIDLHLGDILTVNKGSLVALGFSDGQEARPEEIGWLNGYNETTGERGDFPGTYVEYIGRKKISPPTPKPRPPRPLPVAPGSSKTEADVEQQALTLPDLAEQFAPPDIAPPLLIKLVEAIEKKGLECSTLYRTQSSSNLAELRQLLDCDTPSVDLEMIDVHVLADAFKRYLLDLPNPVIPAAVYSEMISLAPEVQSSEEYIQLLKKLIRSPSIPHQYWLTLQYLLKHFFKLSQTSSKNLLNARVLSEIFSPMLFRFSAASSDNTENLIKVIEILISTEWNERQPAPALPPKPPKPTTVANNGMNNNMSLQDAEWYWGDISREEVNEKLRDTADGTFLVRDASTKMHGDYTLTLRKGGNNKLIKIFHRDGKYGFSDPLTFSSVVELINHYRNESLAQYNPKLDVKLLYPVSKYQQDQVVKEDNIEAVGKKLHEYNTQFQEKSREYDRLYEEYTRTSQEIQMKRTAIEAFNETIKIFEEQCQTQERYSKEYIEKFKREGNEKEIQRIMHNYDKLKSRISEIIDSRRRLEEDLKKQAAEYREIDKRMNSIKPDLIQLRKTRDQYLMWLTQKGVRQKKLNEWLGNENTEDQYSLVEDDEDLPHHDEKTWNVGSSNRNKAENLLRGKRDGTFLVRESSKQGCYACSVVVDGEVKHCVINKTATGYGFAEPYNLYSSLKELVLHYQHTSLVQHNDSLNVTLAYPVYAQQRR
T5 sequence (P48736 whole entry): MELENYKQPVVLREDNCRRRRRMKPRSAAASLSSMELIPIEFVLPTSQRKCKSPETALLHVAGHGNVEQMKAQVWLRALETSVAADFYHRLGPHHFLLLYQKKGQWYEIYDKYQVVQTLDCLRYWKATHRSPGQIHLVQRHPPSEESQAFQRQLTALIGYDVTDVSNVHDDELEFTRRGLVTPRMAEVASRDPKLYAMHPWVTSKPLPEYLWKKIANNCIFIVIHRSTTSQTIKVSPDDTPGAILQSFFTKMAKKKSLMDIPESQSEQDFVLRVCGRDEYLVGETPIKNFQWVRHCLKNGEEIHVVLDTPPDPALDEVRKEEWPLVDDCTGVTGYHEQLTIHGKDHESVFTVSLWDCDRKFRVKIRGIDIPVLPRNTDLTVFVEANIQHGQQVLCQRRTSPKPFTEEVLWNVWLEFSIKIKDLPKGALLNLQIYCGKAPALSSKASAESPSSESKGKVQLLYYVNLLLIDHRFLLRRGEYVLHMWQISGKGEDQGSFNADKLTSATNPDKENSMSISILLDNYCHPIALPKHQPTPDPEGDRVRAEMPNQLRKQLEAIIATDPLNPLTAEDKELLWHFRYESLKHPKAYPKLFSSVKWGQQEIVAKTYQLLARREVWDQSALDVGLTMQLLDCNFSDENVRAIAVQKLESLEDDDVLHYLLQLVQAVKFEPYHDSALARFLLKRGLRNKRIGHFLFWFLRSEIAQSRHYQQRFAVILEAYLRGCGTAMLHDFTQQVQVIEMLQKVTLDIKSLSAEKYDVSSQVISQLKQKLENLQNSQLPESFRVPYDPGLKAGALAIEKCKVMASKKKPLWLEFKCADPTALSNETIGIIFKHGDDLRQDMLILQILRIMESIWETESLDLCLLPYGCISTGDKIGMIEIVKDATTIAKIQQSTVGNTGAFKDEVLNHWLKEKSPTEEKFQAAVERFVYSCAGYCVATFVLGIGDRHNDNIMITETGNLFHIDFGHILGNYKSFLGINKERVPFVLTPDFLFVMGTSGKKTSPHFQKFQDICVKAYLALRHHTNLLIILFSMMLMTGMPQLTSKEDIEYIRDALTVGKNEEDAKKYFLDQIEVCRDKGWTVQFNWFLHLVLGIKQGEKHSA
T3 sequence (P42336 whole entry): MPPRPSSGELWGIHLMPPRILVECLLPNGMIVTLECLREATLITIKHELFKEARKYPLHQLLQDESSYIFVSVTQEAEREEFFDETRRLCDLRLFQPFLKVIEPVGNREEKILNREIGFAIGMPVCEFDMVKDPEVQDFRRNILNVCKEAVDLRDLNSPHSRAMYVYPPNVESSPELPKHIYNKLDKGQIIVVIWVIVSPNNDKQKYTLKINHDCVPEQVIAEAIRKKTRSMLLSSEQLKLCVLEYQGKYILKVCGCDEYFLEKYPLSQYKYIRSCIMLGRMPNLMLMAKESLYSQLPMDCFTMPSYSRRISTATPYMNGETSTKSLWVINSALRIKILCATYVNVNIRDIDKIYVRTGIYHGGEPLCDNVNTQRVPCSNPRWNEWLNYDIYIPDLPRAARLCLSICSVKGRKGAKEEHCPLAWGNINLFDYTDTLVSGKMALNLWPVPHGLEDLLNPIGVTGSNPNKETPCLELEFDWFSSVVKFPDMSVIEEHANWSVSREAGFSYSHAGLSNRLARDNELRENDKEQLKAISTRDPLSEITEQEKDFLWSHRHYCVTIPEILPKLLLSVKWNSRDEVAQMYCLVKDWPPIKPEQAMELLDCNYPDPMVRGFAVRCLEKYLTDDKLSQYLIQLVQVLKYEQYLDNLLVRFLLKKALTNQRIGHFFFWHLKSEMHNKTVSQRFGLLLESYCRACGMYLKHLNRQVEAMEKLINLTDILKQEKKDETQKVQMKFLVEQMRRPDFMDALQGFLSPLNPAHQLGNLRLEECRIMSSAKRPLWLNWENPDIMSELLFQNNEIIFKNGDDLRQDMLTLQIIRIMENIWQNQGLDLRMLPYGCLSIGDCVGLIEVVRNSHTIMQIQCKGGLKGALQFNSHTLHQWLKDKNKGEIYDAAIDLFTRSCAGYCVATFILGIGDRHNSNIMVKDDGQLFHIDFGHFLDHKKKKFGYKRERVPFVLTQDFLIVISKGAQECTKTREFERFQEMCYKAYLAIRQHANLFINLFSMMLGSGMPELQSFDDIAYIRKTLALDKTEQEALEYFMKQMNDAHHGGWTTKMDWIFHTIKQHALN
T3 sequence (P27986 whole entry partner): as the sequence (P27986 whole entry partner) above

As for `C=CC(=O)N1CCOc2ccc(-c3csc4c(=O)cc(N5CCOCC5)oc34)cc21` [Compound 7, 1-[7-(5-Morpholino-7-oxo-4-oxa-1-thia-3-indenyl)-4-oxa-1-aza-2,3-dihydro-1H-naphth-1-yl]-2-propen-1-one], the IC50 – broadly, the concentration needed to halve the response being measured – in [1] was under 1000 nM; in experiment [2], under 1000 nM; at PI3K α, under 1000 nM; at PI3K δ, under 1000 nM; at PI3K γ, under 1000 nM; on BTK (WT), under 1 µM. Also, the half-inhibitory concentration (IC50) at BTK (C481S) is 10 to 30 µM; in the experiment on JeKo-1 cells [3], under 1000 nM; in the experiment with Mino cells [4], under 1000 nM; with Granta519 cells it was 1000 to 10000 nM. For the same molecule, the “Ratio C481S/WT” value at BTK (C481S) (ratio of the BTK IC50 values, C481S over wild-type) is listed as 728. Further, the “Percentage cells in apoptosis” value in the experiment on JeKo-1 cells [5] (JeKo-1, 24-hour, Early) is “+ (less than 5%)”; in the experiment on JeKo-1 cells [5] (JeKo-1, 24-hour, Late), “+++ (between 10% and 30%)”; in the experiment on JeKo-1 cells [5] (JeKo-1, 24-hour, Total), “+++ (between 10% and 30%)”; in the experiment with JeKo-1 cells [5] (JeKo-1, 48-hour, Early) it was “+++ (between 10% and 30%)”; in the experiment with JeKo-1 cells [5] (JeKo-1, 48-hour, Late), “+++ (between 10% and 30%)”; with JeKo-1 cells [5] (JeKo-1, 48-hour, Total), “++++ (between 30% and 50%)”. For the same molecule, the “Percentage cells in apoptosis” value was “+++ (between 10% and 30%)” in the experiment on Mino cells [6] (Early); “++ (between 5% and 10%)” in the experiment on Mino cells [6] (Late); “+++ (between 10% and 30%)” in the experiment with Mino cells [6] (Total). Besides, the “Potency in reducing mantle cell lymphoma viability as compared to Ibrutinib” value in [7] is on record as “markedly more potent”. The “Apoptosis compared with exposure to Ibrutinib” value with JeKo and Mino cells is “much more apoptosis”. The “Suppression of pBTK (Tyr223)” value in [8] (setting [14]) was “block the catalytic activity”. The “Suppression of pAKT (Ser 473)” value in [9] (setting [14]) is listed as “block the catalytic activity”. Besides, in experiment [10], the “Inhibition of pBTK” value is “inhibit pBTK”. Besides, in experiment [11], the “Inhibition of pAKT” value is “inhibits pAKT and in a dose dependent manner”. Moreover, the “pBTK suppression activity upon washout” value in experiment [12] is “irreversible”. In addition, the “Release of BRD4 from chromatin” value in experiment [13] is “released a fluorophore-tagged BRD4 fusion protein from chromatin”. In the experiment on JeKo cells, the Cell cycle effect result is “Cell Cycle Arrest”.
For the molecule `C=CC(=O)Nc1ccc(-c2csc3c(=O)cc(N4CCOCC4)oc23)cc1` [Compound 13], the IC50 in the experiment on JeKo-1 cells [3], with Mino cells [4] and in the experiment with Granta519 cells was under 1000 nM each time. Moreover, in experiment [7], the “Potency in reducing mantle cell lymphoma viability as compared to Ibrutinib” value is on record as “markedly more potent”. Further, the “Suppression of pBTK(Y223)” value in experiment [8] (setting [15]) is on record as “suppressed”. Moreover, the “Suppression of pAKT” value in [9] (setting [15]) is given as “suppressed”.
Consider `O=c1cc(N2CCOCC2)oc2c(-c3ccc4c(c3)OCCO4)csc12` [Compound 0, reference compound], for which the IC50 in experiment [1] is under 1000 nM; in [2], 1000 to 10000 nM; at PI3K δ it was under 1000 nM; on PI3K γ, under 1000 nM; on BTK (WT), 10 to 30 µM; at BTK (C481S), 10 to 30 µM. In addition, the IC50 is under 1000 nM in the experiment on JeKo-1 cells [3], under 1000 nM with Mino cells [4] and 1000 to 10000 nM in the experiment on Granta519 cells. For the same molecule, the “Potency in reducing mantle cell lymphoma viability as compared to Ibrutinib” value in experiment [7] was “markedly more potent”.
Turning to `O=c1cc(N2CCOCC2)oc2c(-c3ccccc3)cccc12` [LY294002, 2-(4-morpholinyl)-8-phenyl-4H-1-benzopyran-4-one], the IC50 in the experiment on PI3 kinases was 1400 nM.
